Data from patent US10080748B2, “Use of flap inhibitors to reduce neuroinflammation mediated injury in the central nervous system” (Bioscience Pharma Partners, LLC, priority 2014, dated 2018).
Structures can show the parent of a compound that is named as a salt. Where two headings read alike, the source gives them in different places.

Experiments:
[1] = system: Primary neurons cultured from newborn rats; test: Apoptosis of primary neurons in vitro
Procedure: Primary neurons cultured from newborn rats were incubated in the presence of increasing concentrations of LTC4 or LTD4 for 16 hours.

[2] = system: mice subjected to CHI (mTBI model); test: GFAP and Iba-1 immunohistochemical staining, mouse closed head injury (CHI) model; format: in vivo; conditions: 5 mg/kg IP once daily for 6 days after CHI; 7 dpi
[3] = Brain and plasma levels 30 minutes after intranasal administration; format: in vivo, rat; conditions: intranasal 60 micrograms/32 ul lipid carrier, 30 minutes post-dosing
Procedure: For intranasal delivery and subsequent tissue collection, rats were anesthetized with 3.5% isoflurane and placed in a supine position on top of a heating pad. The quinoline-indole FLAP inhibitor MK-591, 60 micrograms (μg) formulated with a lipid carrier was administered using a P20 pipette. Specifically, 4 μl drops were formed at the pipette tip and lowered to alternating nostrils every two minutes until a total of eight 4 μl drops were administered. At 30 minutes after the start of intranasal delivery, blood was collected from the heart, and rats were transcardially perfused with 60 ml ice-cold 0.9% NaCl followed by 360 ml 4% paraformaldehyde at 15 ml/minute. Brain tissues were dissected into anatomical regions on ice, weighed, snap-frozen in liquid N2, and stored at −70° C. until analysis. The levels of MK-591 in tissues and plasma were measured by tandem mass spectroscopy.
The MK-591 was formulated in a lipid carrier solution as described above. […] The rats were briefly anesthetized with 3.5% isoflurane and intranasal MK-591 (60 micrograms/32 ul lipid carrier) was administered in eight 4 ul aliquots to the nasal mucosa alternating between each nostril. The amount of drug was determined with the goal of reaching 200 nM concentration of drug which corresponds to 100× the Kd value for binding to FLAP. At 30 minutes post-dosing, blood was collected from anesthetized animals using a heparanized needle and plasma was separated from blood by centrifugation. The animals were then perfused with saline, while still under anesthesia, to remove drug in the blood of the cerebrovasculature. After perfusion the animals were euthanized and brain regions were rapidly removed. Both plasma and brain tissue samples were frozen in liquid nitrogen followed by storage at −80° C. Drug levels in the peripheral plasma and parenchymal brain tissues were assessed using a validated tandem mass spectroscopy platform. Values are expressed in ng of MK-591/mg tissue. […] The concentration of MK-591 in the cortex was 200 nM, the target concentration.

[4] = cited from earlier work
human whole blood = test: Human whole blood bioassay of LTB4, 5-HETE and AA production; format: cell-based
From the text: The results are for the effects of these two FLAP inhibitors on LTB4 production and 5-HETE production. It is known that indole-acetic acid FLAP inhibitors like MK-886, MK-591 display high plasma protein binding. Thus, the potencies of these FLAP inhibitors for blocking leukotrienes in vivo are about 100 fold higher than the affinity of the inhibitors for FLAP binding. The inventors developed a bioassay that closely predicts the in vivo potency of FLAP inhibitors using human whole blood. Briefly, whole blood is incubated with a calcium ionophore like […] or zymosan in the absence or presence of increasing concentrations of a FLAP inhibitor. After incubation at 37° C. for 30 minutes, the samples are centrifuged and the plasma supernatant is subjected to reverse phase liquid chromatography coupled to tandem mass spectrometry to quantify levels of LTB4, 5-HETE, and AA production. Drug IC50 values are determined by non-linear regression analysis (GraphPad Prism).). […] As FLAP inhibitors are poorly water soluble drugs, the inventors have shown that such hydrophobic drugs can be formulated in a carrier comprising one or more vegetable oils, such as olive oil, and phosphatidylserine that are found on the Generally Accepted as Safe (GRAS) list and that such drugs can then be rapidly delivered and targeted to the brain and upper spinal cord. Hanson L R, et al, Drug Delivery 19(3):149-54, 2012.

[5] = Brain and plasma levels 30 minutes after intraperitoneal administration; format: in vivo, rat; conditions: intraperitoneal 10 mg/kg in 20% DMSO/saline; 30 minutes post-dosing
Procedure: The rats were injected intraperitoneally with MK-591 (10 mg/kg in 20% DMSO/saline solution). At 30 minutes post-dosing, blood was collected from anesthetized animals using a heparanized needle and plasma was separated from blood by centrifugation. The animals were then perfused with saline, while still under anesthesia, to remove drug in the blood of the cerebrovasculature. After perfusion the animals were euthanized and brain hemispheres were rapidly removed. Both plasma and brain tissue samples were frozen in liquid nitrogen followed by storage at −80° C. Drug levels in the peripheral plasma and brain were assessed using a validated tandem RP-LC/MS/MS platform. […] Using the conversion of 1 ml=1 gm. The total volume of blood was 2 ml (or […]). The total weight of the brain hemisphere (minus cerebellum) is […]. Values are expressed in ng of MK-591/mg tissue.

[6] = cited from earlier work; remark: listed apart in the source
[7] = system: leukotriene LTC4 production; test: LTC4 levels in brain after rat fluid percussion injury (RP LC-MS/MS); format: in vivo; conditions: neutrophil depletion, 0.5 mg/kg IV four days prior to TBI; 1 hour after FPI
Procedure: Craniotomy and lateral fluid percussion injury (FPI) were performed using a previously validated and published procedure. Farias S, et al. J. Neurotraum, 26, 1977-1986, 2009; Frey L. C. et al. J. Neurosci. Methods 177, 267-272, 2009. Throughout the specification animals subjected to this protocol are referred to as having a TBI since this treatment protocol is a TBI model. Briefly, rats were anesthetized with 3-5% isoflurane, isosol, VEDCO Inc., St. Joseph, Mo., via nose cone and mounted in a stereotaxic head frame. A 3 millimeter (mm) craniotomy was created and centered at 3 mm caudal to bregma and 3.5 mm left of the sagittal suture, keeping the exposed dura intact. One steel support screw was embedded in the skull on the contralateral side. A Luer-Lock hub with an inside diameter of 3.5 mm was centered over the craniotomy and bonded to the skull with cyanoacrylate adhesive and capped. Dental acrylic, Snap, Parka, Inc., Edgewood, N.J., was poured around the huh and screw. After the acrylic hardened antibiotic ointment was applied around the cap and the animals were returned to their cages. The next day, approximately 15-20 hours later, animals were anesthetized with isoflurane in an induction chamber, immediately connected to the FPI apparatus, and received a 20 millisecond (ms) pulse of pressurized sterile saline at 2.7 atmospheres (atm) of pressure to simulate a moderate severity impact on the intact dural surface through the craniotomy before awakening from anesthesia. […] All animals received a subcutaneous injection of the analgesic, buprenorphine, 0.05 milligram/kilogram (mg/kg) Buprenex, prior to craniotomy, and subsequent injections every 12 hours for two days. Moistened food pellets were provided after injury, and all animals were monitored daily for well-being and weight changes.
Two groups of four rats each were subjected to FPI as described above. Four days prior to the FPI, each animal was briefly anesthetized for less than 5 minutes with 3-3.5% isoflurane and administered either NaCl 0.9%, 2 ml/kg IV (vehicle) or vinblastine sulfate 0.5 mg/kg IV in an identical volume. Neutrophil depletion was verified by complete cell blood counts (CBC) in vinblastine treated animals 4 days after administration. Both groups were euthanized by decapitation and the brain lipids extracted 1 hour after FPI. The amounts of LTC4 formed, measured by RP LC-MS/MS and normalized per milligram of protein, were compared between groups using one-way analysis of variance and the Student-Newman-Keuls test for multiple comparisons.
The indole FLAP inhibitor MK-886 was prepared at a dose of 2.5 milligram/milliliter (mg/ml), dissolved in dimethyl sulfoxide (DMSO) and then diluted with 0.9% saline to 10% DMSO. The rats were briefly anesthetized with 3-3.5% isoflurane and either […] at a dose of 6 mg/kg or vehicle was administered intravenously (IV) by tail vein injection. All animals were allowed to wake before undergoing additional procedures.
Cortical and hippocampal regions from ipsilateral and contralateral hemispheres were collected in 4 ml of 80% methanol, homogenized with a Dounee homogenizer, and internal standards were added to the homogenates. Protein content was measured using bicinchoninic acid assay (BCA) for protein to normalize lipid levels to the amount of tissue. Samples were centrifuged and the supernatant was collected. Samples were diluted to a final methanol concentration of lower than 15% and then the lipids were extracted using a solid phase extraction cartridge, Strata C18-E, 100 mg/1 ml, Phenomenex, Torrence Calif. The eluate, 1 ml of methanol, was dried down and reconstituted in 70 microliters (μl) of High Performance Liquid Chromotography (HPLC) solvent A, which is 8.3 mM acetic acid buffered to pH 5.7 with NH4OH, plus […] of solvent B, which is acetonitrile/methanol, 65/35, v/v. […]

Q: Which neuronal apoptosis ([1]; increasing concentrations, 16 hours, dose-dependent) does the source give for `CCCCC/C=C\C\C=C/C=C/C=C/[C@@H](SC[C@H](NC(=O)CC[C@H](N)C(=O)O)C(=O)NCC(=O)O)[C@@H](O)CCCC(=O)O` [LTC4, leukotriene C4] here?
A: induce neuronal apoptosis

Q: With `CCCCC/C=C\C\C=C/C=C/C=C/[C@@H](SC[C@H](N)C(=O)NCC(=O)O)[C@@H](O)CCCC(=O)O` [LTD4, leukotriene D4] as the compound, how does the neuronal apoptosis [1] read?
A: induce neuronal apoptosis

Q: Which results are given for `CC(C)(C)Sc1c(CC(C)(C)C(=O)O)n(Cc2ccc(Cl)cc2)c2ccc(OCc3ccc4ccccc4n3)cc12` [MK-591]?
A: GFAP staining in cerebral cortex, external capsule and dentate gyrus [2]: significantly blocked the increase; Iba-1 staining in cerebral cortex, external capsule and dentate gyrus [2]: significantly blocked the increase; brain localization (rank of regions by level) [3]: highest level of MK-591 was detected in the olfactory bulbs, followed by the hippocampus, and cortex; levels of drug in plasma versus brain [3]: lower than the amount of drug reaching the brain; concentration at 30 min ([3]; rat, brain cortex, other: intranasal): 200 nM; t1/2 compared with MK-886 [4]: longer; potency compared with MK-886 (human whole blood): more potent; AA production (human whole blood; human whole blood, data not shown): neither of the FLAP inhibitors effected AA production; distribution between plasma and brain tissue [5]: most of the drug was in the plasma with much lower levels found in brain tissue; plasma protein binding [6]: high

Q: For `CC[C@]1(O)C[C@@H]2CN(CCc3c([nH]c4ccccc34)[C@@](C(=O)OC)(c3cc4c(cc3OC)N(C)[C@H]3[C@@](O)(C(=O)OC)[C@H](OC(C)=O)[C@]5(CC)C=CCN6CC[C@]43[C@@H]65)C2)C1` [vinblastine, vinblastine sulfate], which “leukotriene production in the ipsilateral hemisphere” value [7] is on record?
A: markedly reduced
